GI50 and TGI data for 8 compounds are collected here from PubChem BioAssay (NCI).

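Five concentrations, 48 hours, 96-well plates. Abbreviation: GI50, concentration required for 50% inhibition of growth. The concentration for full growth arrest is given as TGI.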

Among the test systems are OVCAR-8 ovarian; OVCAR-5 ovarian; SN12C renal; TK-10 renal; SNB-19 CNS; OVCAR-3 ovarian; SF-539 CNS; SNB-75 CNS; K-562 leukemia; SK-MEL-2 melanoma.
Assay in all cases: NCI anticancer screen, dose series, 48 h

As for `O=C(CN1CCN(c2cc3c(cc2F)c(=O)c(C(=O)N/N=C/c2ccccc2O)cn3C2CC2)CC1)N/N=C\c1ccccc1O`, the GI50 was 0.417 µM in the assay on OVCAR-8 ovarian; 1.62 µM in the assay with OVCAR-5 ovarian; 0.694 µM in the assay on SN12C renal; 0.77 µM in the assay on TK-10 renal; 1.18 µM with SNB-19 CNS; 0.269 µM in the assay on OVCAR-3 ovarian. The GI50 was 0.829 µM in the assay with SF-539 CNS, 1.11 µM in the assay with SNB-75 CNS, 0.389 µM in the assay with K-562 leukemia and 1.66 µM with SK-MEL-2 melanoma. Besides, the TGI in the assay on OVCAR-8 ovarian, in the assay on OVCAR-5 ovarian, with SN12C renal, with TK-10 renal, with SNB-19 CNS and in the assay with OVCAR-3 ovarian was over 100 µM in each case. In addition, the TGI in the assay with SF-539 CNS is over 64 µM; in the assay on SNB-75 CNS it was over 100 µM; in the assay on K-562 leukemia, over 100 µM; in the assay on SK-MEL-2 melanoma, over 100 µM.
Consider `O=c1n(CC2CO2)c(=O)n(CC2CO2)n1CC1CO1` (centres undefined), for which the GI50 in the assay with OVCAR-8 ovarian was 27.2 µM; in the assay with OVCAR-5 ovarian, 63.1 µM; with SN12C renal, 9.03 µM; in the assay on TK-10 renal, 27.9 µM; with SNB-19 CNS, 14.2 µM; in the assay with OVCAR-3 ovarian it was 13.7 µM. Besides, the GI50 with SF-539 CNS is 4.89 µM; in the assay on SNB-75 CNS, 15.8 µM; with K-562 leukemia it was 51.4 µM; in the assay on SK-MEL-2 melanoma it was over 73.5 µM. In addition, the TGI in the assay with OVCAR-8 ovarian is over 100 µM; in the assay with OVCAR-5 ovarian, over 100 µM; in the assay with SN12C renal, over 100 µM; in the assay with TK-10 renal it was over 100 µM; in the assay with SNB-19 CNS, over 100 µM; with OVCAR-3 ovarian it was over 55.5 µM. In addition, the TGI is over 54.3 µM with SF-539 CNS, over 100 µM with SNB-75 CNS, over 100 µM with K-562 leukemia and over 100 µM in the assay on SK-MEL-2 melanoma.
In the case of `CSc1ccc(/C=C2\CN(C)C/C(=C\c3ccc(SC)cc3)C2=O)cc1`, the TGI in the assay with OVCAR-8 ovarian is 39.6 µM; with OVCAR-5 ovarian, over 100 µM; in the assay on SN12C renal, 78.9 µM; with TK-10 renal, over 100 µM; with OVCAR-3 ovarian, 56 µM; in the assay on SF-539 CNS, 78.9 µM. For the same compound, the TGI was 38.2 µM with SNB-75 CNS, over 100 µM with K-562 leukemia and over 100 µM with SK-MEL-2 melanoma.
Take `CN(C)c1ccc(-c2cc(-c3ccc(Nc4nc(Nc5ccc(Cl)cc5)nc(Nc5ccc(Cl)cc5)n4)cc3)no2)cc1`: the GI50 in the assay on OVCAR-8 ovarian is 5.91 µM; with OVCAR-5 ovarian, 17.3 µM; in the assay with SN12C renal, 9.63 µM; in the assay with TK-10 renal it was 16.3 µM; in the assay with SNB-19 CNS, 18.7 µM; with OVCAR-3 ovarian, 3.42 µM. For the same compound, the GI50 in the assay on SF-539 CNS was 5.18 µM; with SNB-75 CNS it was 5.12 µM; in the assay with K-562 leukemia it was 1.72 µM; with SK-MEL-2 melanoma, 2.87 µM. The TGI with OVCAR-8 ovarian is 39 µM; with OVCAR-5 ovarian, 50.2 µM; in the assay with SN12C renal it was 61 µM; in the assay with TK-10 renal, over 100 µM; in the assay on SNB-19 CNS, over 100 µM; with OVCAR-3 ovarian, 8.96 µM. Besides, the TGI came to 21.2 µM in the assay with SF-539 CNS, 28.1 µM in the assay with SNB-75 CNS, 5.3 µM in the assay on K-562 leukemia and 11 µM with SK-MEL-2 melanoma.
Consider `Fc1ccc(Nc2ncnc3ccc(-c4cnc5[nH]ccc5c4)cc23)cc1Cl`, for which the GI50 in the assay on OVCAR-8 ovarian is 2.94 µM; in the assay with OVCAR-5 ovarian it was 2.13 µM; with SN12C renal it was 1.73 µM; in the assay on TK-10 renal, 0.292 µM; in the assay with SNB-19 CNS, 1.94 µM; in the assay on OVCAR-3 ovarian, 1.51 µM. For the same compound, the GI50 with SF-539 CNS was 2.3 µM; in the assay with SNB-75 CNS, 1.23 µM; with K-562 leukemia, 3.48 µM; in the assay on SK-MEL-2 melanoma, 16.6 µM. Also, the TGI in the assay on OVCAR-8 ovarian stood at 14.9 µM; in the assay with OVCAR-5 ovarian it was 10.6 µM; in the assay with SN12C renal, 4.88 µM; with TK-10 renal, 13.8 µM; with SNB-19 CNS, 5.94 µM; with OVCAR-3 ovarian, 3.73 µM. Also, the TGI in the assay on SF-539 CNS is 7.65 µM; with SNB-75 CNS, 3.42 µM; in the assay on K-562 leukemia it was over 100 µM; with SK-MEL-2 melanoma, 68.2 µM.
On to `NC(CSC(c1ccccc1)(c1ccccc1)c1ccc2c(c1)OCO2)C(=O)O` (centres undefined), for which the GI50 was 0.595 µM with OVCAR-8 ovarian; 7.22 µM in the assay with OVCAR-5 ovarian; 0.633 µM in the assay on SN12C renal; 10.6 µM with TK-10 renal; 0.665 µM in the assay with SNB-19 CNS; 0.512 µM in the assay with OVCAR-3 ovarian. Besides, the GI50 with SF-539 CNS is 0.392 µM; in the assay with SNB-75 CNS it was 0.283 µM; with K-562 leukemia it was 0.406 µM; in the assay on SK-MEL-2 melanoma it was 0.511 µM. For the same compound, the TGI in the assay with OVCAR-8 ovarian is over 100 µM; in the assay with OVCAR-5 ovarian, over 100 µM; with SN12C renal, over 100 µM; with TK-10 renal, over 100 µM; in the assay with SNB-19 CNS, over 100 µM; in the assay with OVCAR-3 ovarian, 16.4 µM. Also, the TGI was over 41 µM with SF-539 CNS, 7.06 µM in the assay with SNB-75 CNS, over 100 µM in the assay with K-562 leukemia and 27.4 µM in the assay with SK-MEL-2 melanoma.
Turning to `O=C1/C(=C/c2ccc([N+](=O)[O-])cc2)COc2ccc(O)c(O)c21`, the GI50 was 2.29 µM in the assay on OVCAR-8 ovarian; 1.81 µM in the assay on OVCAR-5 ovarian; 1.54 µM with SN12C renal; 1.68 µM in the assay on TK-10 renal; 1.56 µM with SNB-19 CNS; 0.79 µM with OVCAR-3 ovarian. Moreover, the GI50 in the assay on SF-539 CNS was 1.7 µM; in the assay with SNB-75 CNS, 1.55 µM; with K-562 leukemia, 0.547 µM; with SK-MEL-2 melanoma, 1.87 µM. For the same compound, the TGI in the assay on OVCAR-8 ovarian was 9.93 µM; with OVCAR-5 ovarian, 3.74 µM; in the assay on SN12C renal, 4.19 µM; in the assay on TK-10 renal it was 3.99 µM; in the assay on SNB-19 CNS it was 3.1 µM; in the assay on OVCAR-3 ovarian it was 2.14 µM. The TGI was 3.33 µM in the assay on SF-539 CNS, 3.82 µM with SNB-75 CNS, over 100 µM in the assay with K-562 leukemia and 4.37 µM in the assay with SK-MEL-2 melanoma.
Take `O=C(Nc1ccc(I)cc1)c1cc([N+](=O)[O-])ccc1O`: the GI50 in the assay on OVCAR-8 ovarian was 7.21 µM; in the assay on OVCAR-5 ovarian, 27.9 µM; with SN12C renal it was 4.61 µM; in the assay on TK-10 renal, 9.9 µM; in the assay with SNB-19 CNS, 5.5 µM; in the assay with OVCAR-3 ovarian, 3.74 µM. Further, the GI50 in the assay with SF-539 CNS is 11.4 µM; in the assay with SNB-75 CNS it was 8.89 µM; in the assay with K-562 leukemia, 4.69 µM; with SK-MEL-2 melanoma, 3.54 µM. Further, the TGI in the assay on OVCAR-8 ovarian was 25.8 µM; in the assay with OVCAR-5 ovarian it was over 100 µM; in the assay on SN12C renal it was 75.4 µM; in the assay on TK-10 renal, over 100 µM; in the assay with SNB-19 CNS, over 100 µM; in the assay with OVCAR-3 ovarian, 32.1 µM. The TGI in the assay on SF-539 CNS is 80 µM; in the assay on SNB-75 CNS, 67 µM; in the assay on K-562 leukemia it was over 100 µM; in the assay on SK-MEL-2 melanoma it was 20.1 µM.
